Key:
Assay type in all cases: cell-based
BaF3-ITD = target: T1, BaF3-ITD (Homo sapiens, UniProt P36888, cells depend on it, form not given); experiment: MTS cellular proliferation assay; conditions: 72 hour incubation, read-out: Growth inhibitory activity (in vivo EC50 nM)
T1 sequence (P36888 1-993): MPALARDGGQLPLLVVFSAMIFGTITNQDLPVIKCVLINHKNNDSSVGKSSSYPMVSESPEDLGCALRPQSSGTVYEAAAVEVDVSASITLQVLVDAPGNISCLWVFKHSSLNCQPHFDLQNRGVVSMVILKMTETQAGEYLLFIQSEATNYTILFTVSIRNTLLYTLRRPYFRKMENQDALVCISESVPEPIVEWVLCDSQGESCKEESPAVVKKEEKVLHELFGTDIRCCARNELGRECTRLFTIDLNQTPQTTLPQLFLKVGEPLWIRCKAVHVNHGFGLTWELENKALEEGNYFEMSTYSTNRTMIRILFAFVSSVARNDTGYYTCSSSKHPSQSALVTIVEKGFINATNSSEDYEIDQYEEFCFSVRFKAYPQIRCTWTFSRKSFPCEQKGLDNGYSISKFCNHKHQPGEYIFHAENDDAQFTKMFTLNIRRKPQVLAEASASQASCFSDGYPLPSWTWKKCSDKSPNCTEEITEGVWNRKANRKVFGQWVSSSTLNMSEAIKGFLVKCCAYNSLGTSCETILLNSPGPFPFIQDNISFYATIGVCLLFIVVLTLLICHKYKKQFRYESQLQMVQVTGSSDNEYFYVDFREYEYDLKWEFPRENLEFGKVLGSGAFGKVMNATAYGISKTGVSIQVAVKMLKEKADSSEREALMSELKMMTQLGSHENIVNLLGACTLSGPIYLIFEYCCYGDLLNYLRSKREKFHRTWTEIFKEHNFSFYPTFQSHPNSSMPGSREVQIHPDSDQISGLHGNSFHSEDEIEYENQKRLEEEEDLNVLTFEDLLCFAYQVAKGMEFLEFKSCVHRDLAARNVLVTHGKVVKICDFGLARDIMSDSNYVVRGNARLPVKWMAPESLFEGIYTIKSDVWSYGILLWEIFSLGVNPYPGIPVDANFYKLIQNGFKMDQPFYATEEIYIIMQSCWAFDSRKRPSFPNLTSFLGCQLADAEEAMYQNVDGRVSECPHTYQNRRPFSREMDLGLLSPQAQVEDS
From the text: (§1) The viability of Flt3 expressing cells can be evaluated using a tetrazolium salt reduction cell-based assay. […] BaF3, both wild type and mutant, as well as transfected strains, MV4-11 and MOLM14 are well-characterized Flt3-dependent humanized or human cell lines which express active Flt3 receptors (see, Yee et al. Blood (2002)100 (8):2941-2949; Levis et al. (2002) 99(11): 3885-3891). These cell lines were used to determine the ability of the compounds provided herein to inhibit Flt3 in intact cells. In each case, and by methods known to those practiced in the art of cell culture, proliferation was measured after 72 hour incubation with the compounds provided herein using a standard MTS protocol (Promega Cat #5430 “Cell Titer 96 Aqueous Non-radioactive Cell Proliferation Assay”).
(§2) In general, cells were plated at 10,000-20,000 cells per well in DMEM medium with 0.5% serum. The compound plate was set up by aliquoting into column 1 of a 96 well 300 ul polypropylene plate, the negative control (DMSO), aliquoting into column 12 the positive control and titrating the test compound in serial dilutions into columns 2-1 l. An aliquot from each well of the compound plate was transferred to the plated cells and then incubated @ […] in 5% CO2. [00538] MTS tetrazolium compound (Owen's reagent) was thawed in a H2O bath. 20 μl of MTS tetrazolium was added to each well of optical plate and the cells were incubated @ 37° C. in 5% CO2 for 2 hours. The absorbance measured at 490 nm using a microplate reader.

BaF3-FLT3-WT + IL-3 = experiment: MTS cellular proliferation assay; conditions: 72 hour incubation, read-out: Growth inhibitory activity (in vivo EC50 nM)
From the text: as §1, §2

[1] = test system: Raw264.7 (murine macrophage-like cells); experiment: sulforhodamine B (SRB) cytotoxicity assay; conditions: Mus musculus, RAW264.7, 144 h; 25 μM highest concentration, diluted 1:5; 6 days; read-out: IC50 Measured Against Raw264.7 Cell Line
[2] = test system: PC-3 (prostate cancer) cell line; experiment: sulforhodamine B (SRB) cytotoxicity assay; conditions: Homo sapiens, PC-3, 72 h; 100 μM highest concentration, diluted 1:5; 3 day incubation; read-out: IC50 Measured Against PC-3 Cell Line
Procedure: (§3) The cytotoxic activity of compounds listed in Table 5 was determined with a sulforhodamine B (SRB) assay on panel of cell lines, including MdaMb231 (breast cancer), MV4-11 (leukemia), PC-3 (prostate cancer), U266B1 (multiple myeloma), C7 macrophages, and Raw264.7 (murine macrophage-like cells).
(§4) Cells growing in relevant media were seeded in a 96 well plate and left to adhere overnight. Cells were plated at appropriate cell densities: • MV4-11: 20.000 cells/well • Mda-Mb231: 6000 cells/well • C7: 10.000 cells/well • Raw264.7: 2000 cells/well • PC-3: 6000 cells/well • U266B1: 40.000 cells/well.
(§5) Cells were incubated before the compounds were added the next day to a top concentration of 100 μM and serially diluted 1 in 5 across the plate. After a 3 day incubation period (6 days for C7 and Raw264.7) cells were fixed with trichloroacetic acid (TCA) to end concentration of 10% for adherent cells and 16% end concentration for suspension cells for 1 hr at 4° C. before washing. Cells were stained with 0.4% sulforhodamine-B dye (SRB) in 1% acetic acid for 30 minutes and washed in 1% acetic acid. To solubilize the dye 100 μl 10 mM Tris, pH 10.5 was added and the absorbance was read at 564 nm. IC50 values were generated using the SoftMAX Pro™ software. The data is presented below in Tables 6 through 11.

[3] = test system: U266B1 (multiple myeloma) cell line; experiment: sulforhodamine B (SRB) cytotoxicity assay; conditions: 72 h, 100 μM highest concentration, diluted 1:5, 3 day incubation, read-out: IC50 Measured Against U266B1 Cell Line
Procedure: as §3, §4, §5

C7 macrophages = experiment: sulforhodamine B (SRB) cytotoxicity assay; conditions: Macrophage, 144 h; 5 μM highest concentration, diluted 1:4; 6 day assay; read-out: IC50 Measured Against C7 Cell Line (6 day assay)
Procedure: as §3, §4, §5

| EC50 (BaF3-ITD) [nM] | IC50 (BaF3-FLT3-WT + IL-3) [nM] | SMILES | IC50 [1] [µM] | IC50 [2] [µM] | IC50 [3] [µM] | IC50 (C7 macrophages) [µM] |
| --- | --- | --- | --- | --- | --- | --- |
| 223 | 752 | CN(C)CCCCCNc1ccc2ncn3c4ccc5[nH]ncc5c4c(=O)c1c23 [(III)] | – | – | – | – |
| 80 | > 2000 | CN(C)c1ccc2ncn3c4ccc5[nH]ncc5c4c(=O)c1c23 [(IX)] | – | – | – | – |
| 74 | 1390 | CCN(CC)c1ccc2ncn3c4ccc5[nH]ncc5c4c(=O)c1c23 [(VI)] | – | – | – | – |
| 36 | 356 | CNc1ccc2ncn3c4ccc5[nH]ncc5c4c(=O)c1c23 [(VII)] | – | – | – | – |
| 30 | 341 | CCN(CC)CCNc1ccc2ncn3c4ccc5[nH]ncc5c4c(=O)c1c23 [(VIII)] | – | – | – | – |
| 35 | 492 | O=c1c2c(NCCCN3CCOCC3)ccc3ncn(c4ccc5[nH]ncc5c14)c32 [(X)] | 0.0027 | 17.3 | 7.06 | – |
| – | – | CN(C)CCNc1ccc2ncn3c4ccc5[nH]ncc5c4c(=O)c1c23 [(XII)] | – | – | 6.11 | – |
| – | – | CC(CCN1CCOCC1)Nc1ccc2ncn3c4ccc5[nH]ncc5c4c(=O)c1c23 (stereo not drawn) [(XVI)] | 0.0257 | 8.92 | 14.5 | – |
| – | – | CN1CCN(CCCNc2ccc3ncn4c5ccc6[nH]ncc6c5c(=O)c2c34)CC1 [(XVII)] | 0.0026 | 9.65 | – | 0.36 |
| 20 | 6 | CN(C)CCCNc1ccc2ncn3c4ccc5[nH]ncc5c4c(=O)c1c23 [Compound (IV)] | – | 2.97 | 6.94 | – |
| 90 | 246 | O=c1c2c(NCCN3CCOCC3)ccc3ncn(c4ccc5[nH]ncc5c14)c32 [Compound (V)] | – | – | – | – |
| – | – | CCN(CC)CCCNc1ccc2ncn3c4ccc5[nH]ncc5c4c(=O)c1c23 [Compound (XV)] | – | 32.8 | – | 0.013 |

| SMILES | EC50 (BaF3-ITD) [nM] | IC50 (BaF3-FLT3-WT + IL-3) [nM] | IC50 [1] [µM] | IC50 [2] [µM] | IC50 [3] [µM] | IC50 (C7 macrophages) [µM] |
| --- | --- | --- | --- | --- | --- | --- |
| CCN(CC)CCNc1ccc2ncn3c4ccc(O)cc4c(=O)c1c23 [Symadex, 5-(2-(diethylamino)ethylamino)-8-hydroxy-6H-imidazo[4,5,1-de]acridin-6-one, reference compound] | 11.2 | 13.2 | – | – | – | 0.015 |

From patent publication US20100292231A1, “Indazole Compounds for Treating Inflammatory Disorders, Demyelinating Disorders and Cancers” (priority 2007, published 2010)
